In PubChem BioAssay AID2060613 (Molecular Pharmacology Branch, DTP, NCI, 2025):

Tested on: 233499-124-R-J3-PDC complex spheroid viability
Test: Anticancer human tumor 233499-124-R-J3-PDC patient-derived colon adenocarcinoma cell line growth inhibition [CLK]
Details: for IC50: curve of first compound; for viability, T/C: stronger effect = lower value
From the text: A high-throughput screen of multi-cell type tumor spheroids was designed to identify active combinations of […] and targeted small molecules. Complex spheroids include a stromal component modeled by human endothelial cells (HUVEC) and fibroblasts modeled by human mesenchymal stem cells (MSCs). The concentration ranges selected for each drug and investigational agent were based upon clinically achievable concentrations if the clinical Cmax of the agent was known.
Compounds. The drugs and investigational agents: cirtuvivint (SM08502; NSC835563), CC-671 (NSC850746), vemurafenib (NSC761431), tapotoclax (NSC804041), sotorasib (NSC818433), adagrasib (NSC831453), MRTX-1133 (NSC836407), BAY2416964 (NSC825713), copanlisib (NSC816437), inavolisib (NSC800729), abemaciclib (NSC768073), osimertinib (NSC779217), entinostat (NSC756642), eltanexor (KPT-8602, NSC794443), venetoclax (NSC766270), ceralasertib (NSC777638), bortezomib (NSC756655), olaparib (NSC753686), talazoparib (NSC767125), alisertib (NSC759677), peposertib (NSC802822), gemcitabine (NSC613327), 5-fluorouracil (NSC19893), SN-38 (NSC673596), oxaliplatin (NSC266046), paclitaxel (NSC125973), and doxorubicin (NSC123127), were obtained from the National Cancer Institute (NCI) Developmental Therapeutics Program Chemical Repository. The FDA-approved anticancer drug set is available from the Developmental Therapeutics Program at https://dtp.cancer.gov/organization/dscb/obtaining/available plates.htm. […] The stock solutions were prepared in dimethyl sulfoxide (DMSO, Sigma-Aldrich, St. Louis, MO, cat. D2650), except for the platinum complexes which were prepared in saline (Quality Biological, Gaithersburg, MD, cat. 114-055-101), at 800-fold the tested concentration and stored at -70 degrees C prior to their use. All drugs and investigational agents were tested over a range starting from a high concentration at or near the clinical Cmax and decreasing in half-log increments. If the clinical Cmax for an agent had not been determined, the highest concentration tested was 10 microM.
Cell Culture. All cells were maintained in an incubator at 37 degrees C and 5% CO2 with 95% humidity. The PDC lines were cultured according to standard operating procedures established by the NCI PDMR. Briefly, all PDCs were thawed and cultured in Matrigel-coated flasks prepared with a working solution of 1X Ham's F-12 nutrient mix, without supplementation (Invitrogen, Waltham, MA, cat. 11765054), 100 U/mL penicillin-streptomycin (Invitrogen, cat. 15140122), and 2.5% Matrigel (Corning Inc., Corning, NY, cat. 354248) for the first three passages. The 947758-054-R-J2-PDC line was cultured in 6B/Colon 1A media, which includes advanced DMEM/F-12 (Thermo Fisher Scientific, cat. 12634028), 10 mM HEPES (Thermo Fisher Scientific, cat. 15630080), 1X GlutaMAX supplement (Thermo Fisher Scientific, cat. 35050061), 0.1 mg/mL primocin (InvivoGen, cat. ant-pm-2), 10% defined fetal bovine serum, heat inactivated (HyClone Laboratories Inc., cat. SH30070.03HI), 1.25 mM N-Acetyl-L-cysteine (Sigma-Aldrich, cat. A9165), 10 mM nicotinamide (Sigma-Aldrich, cat. N0636), 1X B-27 supplement (Thermo Fisher Scientific, cat. 17504044), 1X N-2 supplement (Thermo Fisher Scientific, cat. 17502048), and 10 microM Y-27632 dihydrochloride (Tocris Bioscience, cat. 1254). The 876862-298-R-J1-PDC was cultured in 6E media, which includes all 6B/Colon 1A media components plus 50% L-WRN conditioned media (ATCC, cat. CRL-3276), 50 ng/mL recombinant human EGF recombinant protein (hEGF; Thermo Fisher Scientific, cat. PHG0311), 10 ng/mL recombinant human fibroblast growth factor 10 (hGFG-10; PeproTech, cat. 100-26), 1 ng/mL recombinant human fibroblast growth factor 2 (hFGF-2; PeproTech, cat. 100-18B), and 1 µM prostaglandin E2 (PGE2; Tocris, cat. 2296). The 227483-062-R1-J1-PDC line was cultured in Panc media, containing all 6E components except hFGF-2, with the addition of 500 nM SB-431542 (Selleckchem, cat. S1067) and 10 nM gastrin (Tocris, cat. 3006). […]
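Also: spheroids exposed to the drug combinations for seven days.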
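For viability, T/C in this document: percent viability relative to DMSO vehicle control wells taken as 100%.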

C=CC(=O)N1CCN(c2nc(=O)n(-c3c(C)ccnc3C(C)C)c3nc(-c4c(O)cccc4F)c(F)cc23)C(C)C1 (configuration not stated) + CN1CCN(c2cc(C(=O)Nc3cc4cc(-c5cnn(C)c5)ccc4cn3)ccn2)CC1
IC50 (second compound 0.0316 µM): > 10 µM
IC50 (second compound 0.1 µM): > 10 µM
IC50 (second compound 0.316 µM): > 10 µM
IC50 (second compound 1 µM): < 0.0316 µM
IC50 (second compound 3.16 µM): < 0.0316 µM
IC50 (second compound 10 µM): < 0.0316 µM
viability, T/C (second compound 0.0316 µM, first compound 0.0316 µM): 91%
viability, T/C (second compound 0.0316 µM, first compound 0.1 µM): 105%
viability, T/C (second compound 0.0316 µM, first compound 0.316 µM): 103%
viability, T/C (second compound 0.0316 µM, first compound 1 µM): 102%
viability, T/C (second compound 0.0316 µM, first compound 3.16 µM): 102%
viability, T/C (second compound 0.0316 µM, first compound 10 µM): 101%
viability, T/C (second compound 0.1 µM, first compound 0.0316 µM): 99.8%
viability, T/C (second compound 0.1 µM, first compound 0.1 µM): 102%
viability, T/C (second compound 0.1 µM, first compound 0.316 µM): 106%
viability, T/C (second compound 0.1 µM, first compound 1 µM): 99.9%
viability, T/C (second compound 0.1 µM, first compound 3.16 µM): 101%
viability, T/C (second compound 0.1 µM, first compound 10 µM): 108%
viability, T/C (second compound 0.316 µM, first compound 0.0316 µM): 89.6%
viability, T/C (second compound 0.316 µM, first compound 0.1 µM): 103%
viability, T/C (second compound 0.316 µM, first compound 0.316 µM): 96%
viability, T/C (second compound 0.316 µM, first compound 1 µM): 88.5%
viability, T/C (second compound 0.316 µM, first compound 3.16 µM): 92.4%
viability, T/C (second compound 0.316 µM, first compound 10 µM): 82.6%
viability, T/C (second compound 1 µM, first compound 0.0316 µM): 3.8%
viability, T/C (second compound 1 µM, first compound 0.1 µM): 11.4%
viability, T/C (second compound 1 µM, first compound 0.316 µM): 1.76%
viability, T/C (second compound 1 µM, first compound 1 µM): 2.52%
viability, T/C (second compound 1 µM, first compound 3.16 µM): 1.73%
viability, T/C (second compound 1 µM, first compound 10 µM): 0.3%
viability, T/C (second compound 3.16 µM, first compound 0.0316 µM): 0.65%
viability, T/C (second compound 3.16 µM, first compound 0.1 µM): 0.61%
viability, T/C (second compound 3.16 µM, first compound 0.316 µM): 0.73%
viability, T/C (second compound 3.16 µM, first compound 1 µM): 0.79%
viability, T/C (second compound 3.16 µM, first compound 3.16 µM): 1.69%
viability, T/C (second compound 3.16 µM, first compound 10 µM): 1.55%
viability, T/C (second compound 10 µM, first compound 0.0316 µM): 0.41%
viability, T/C (second compound 10 µM, first compound 0.1 µM): 0.38%
viability, T/C (second compound 10 µM, first compound 0.316 µM): 0.45%
viability, T/C (second compound 10 µM, first compound 1 µM): 0.53%
viability, T/C (second compound 10 µM, first compound 3.16 µM): 0.5%
viability, T/C (second compound 10 µM, first compound 10 µM): 1.01%
